Read-outs that look alike come from different tables or passages of the source.
How the values were obtained:
[1] = assay type: in vivo, Rhesus monkey; conditions: 14C-parathion intravenously; activated charcoal gel DSCD, skin pre-treated with Azone
Source text: Extensive In vivo testing of the dermal substance collection device (DSCD) has been undertaken in rabbits (R, Rhesus monkeys (M) and humans (H). […]. Experimental conditions were varied in order to evaluate various binding reservoirs including activated charcoal dispersed in a saline/gel matrix, various DSCD embodiments which provide a liquid bridge including saline, immobilized by various gels such as agarose or polyvinyl alcohol as the gelling agent, various DSCD embodiments which provide persistent occlusive contact of the liquid bridge with the skin (single layer adhesive tape overlying the DSCD liquid bridge/binding reservoir complex vs multiple tape/foil layers enveloping a liquid bridge/binding reservoir complex vs multiple tape/foil layers enveloping a liquid bridge/binding reservoir complex which protrudes into the skin effecting positive pressure during emplacement), various preparatory procedures (shaving, clipping of hair, use of a chemical depilitant, cleansing of the skin with soap and isopropyl alcohol), and various skin penetration enhancing agents (Azone, DET, DMSO).
In a typical animal experiment, a Rhesus monkey is anesthetized with ketamine 10 mg/kg and the hair on the chest and abdomen is clipped prior to washing the underlying skin (with a mild soap or isopropyl alcohol). […]

[2] = Rhesus monkeys, maximum percentage of administered dose collected, liquid bridge diameter 9 mm
[3] = Collection of cimetidine by DSCDs in a healthy volunteer; conditions: 5 mg/kg orally or intravenously, 24 hours, 25 mm liquid bridge, agarose gel with activated charcoal
[4] = Collection of THC by DSCDs after oral THC, RIA after toluene/ethanol extraction; conditions: cancer patient, oral 10 mg THC, up to 48 hours, lower legs, 1 cm gel
[5] = parent compound and metabolites

## CCOP(=S)(OCC)Oc1ccc([N+](=O)[O-])cc1 [14C-parathion]
[1]
  transdermal collection (in words): particularly satisfactory transdermal collection

## CN/C(=N/CCSCc1nc[nH]c1C)NC#N [CIMETIDINE, cimetidine]
[2]; parent compound only
  EXTENT OF TRANSDERMAL MIGRATION: 8.3 % Dose × 10^4
[3]
  amount of cimetidine collected from DSCDs: 62 to 461 ng

## CN1CCCC1c1cccnc1 (stereo not shown) [NICOTINE, nicotine]
[2]; [5]
  EXTENT OF TRANSDERMAL MIGRATION: 2.5 % Dose × 10^4

## CCOP(=S)(OCC)Oc1ccc([N+](=O)[O-])cc1 [PARATHION, parathion]
[2]; [5]
  EXTENT OF TRANSDERMAL MIGRATION: 0.7 % Dose × 10^4

## CCCCCc1cc(O)c2c(c1)OC(C)(C)[C@@H]1CCC(C)=C[C@@H]21 [TETRAHYDROCANNABINOL]
[2]; parent compound only
  EXTENT OF TRANSDERMAL MIGRATION: 0.1 % Dose × 10^4
[4]; agarose gel without activated charcoal
  amount of THC collected from DSCDs: 224 ± 22 pg
[4]; gel with activated charcoal
  amount of THC collected from DSCDs: 601 ± 302 pg

## Cn1c(=O)c2[nH]cnc2n(C)c1=O [THEOPHYLLINE, theophylline]
[2]; [5]
  EXTENT OF TRANSDERMAL MIGRATION: 25 % Dose × 10^4

## inulin
[2]; [5]
  EXTENT OF TRANSDERMAL MIGRATION: 0.5 % Dose × 10^4

Source: patent US4819645A, “Dermal substance collection method” (priority 1987, dated 1989)
